Six compounds from patent US8895504B2, “Amylin derivatives” (priority 2008, dated 2014) can be followed below.

*1 amine or outer side, *2 acyl side, *3 side chain or, on linkers, in order; H or OH if unused. Where a SMILES comes first, the peptide text is derived from it. Bridges are numbered along the chain shown (N, C = ends). The star is where a group is joined. C20 diacid = O=C(O)CCCCCCCCCCCCCCCCCCC(=O)*; γGlu = O=C(O)[C@H](CCC(=O)[*:2])N[*:1]; AEEA = NCCOCCOCC(=O)O; GABA = NCCCC(=O)O

This test has as its target T1, Amylin 3(a) receptor (human calcitonin receptor (CTa) and RAMP-3) (Homo sapiens, UniProt O60896+P30988).
T1 construct: expressed in transfected cells; host or cells: BHK570 cells, stably transfected with a CRE-luciferase reporter
Kind of test: Luciferase assay (III), BHK Amylin 3(a)//CRE-luc cells. It is filed as cell-based. The settings on record: BHK cells with Amylin 3(a) receptor and CRE luciferase reporter, 4 hours incubation; read-out: Potency Luciferase. The method in brief:
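Read-out is CRE-driven luciferase luminescence, taken 30 min after LucLite addition at room temperature. Compounds were incubated 4 h at 37° C in assay medium (10% FBS, 10 mM Hepes, pH 7,4). The cell line is BHK570 co-transfected with human calcitonin receptor CTa and RAMP-3, seeded overnight before use.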

T1 sequence (O60896 24-148): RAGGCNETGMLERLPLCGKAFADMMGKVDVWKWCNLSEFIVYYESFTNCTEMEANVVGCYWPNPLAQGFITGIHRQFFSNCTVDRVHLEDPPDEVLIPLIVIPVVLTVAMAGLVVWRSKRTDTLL
T1 sequence (P30988 25-474): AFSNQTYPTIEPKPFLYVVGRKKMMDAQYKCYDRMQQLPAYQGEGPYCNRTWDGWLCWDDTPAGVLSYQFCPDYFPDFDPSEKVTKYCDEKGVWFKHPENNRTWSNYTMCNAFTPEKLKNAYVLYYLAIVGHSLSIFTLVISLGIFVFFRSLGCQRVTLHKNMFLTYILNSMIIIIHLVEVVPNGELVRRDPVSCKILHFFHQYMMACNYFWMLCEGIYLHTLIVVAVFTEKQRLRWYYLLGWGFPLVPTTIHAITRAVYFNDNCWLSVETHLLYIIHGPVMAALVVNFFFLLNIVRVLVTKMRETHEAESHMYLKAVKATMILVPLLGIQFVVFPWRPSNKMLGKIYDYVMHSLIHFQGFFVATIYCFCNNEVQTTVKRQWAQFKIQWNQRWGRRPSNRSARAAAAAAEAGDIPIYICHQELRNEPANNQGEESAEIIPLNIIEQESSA

Consider `CC[C@H](C)[C@H](NC(=O)[C@@H]1CCCN1C(=O)CNC(=O)[C@H](Cc1ccccc1)NC(=O)[C@H](CC(N)=O)NC(=O)[C@H](CC(N)=O)NC(=O)[C@H](CO)NC(=O)[C@H](CO)NC(=O)[C@H](Cc1c[nH]cn1)NC(=O)[C@H](Cc1c[nH]cn1)NC(=O)[C@H](CC(C)C)NC(=O)[C@H](Cc1ccccc1)NC(=O)[C@H](CC(N)=O)NC(=O)[C@H](C)NC(=O)[C@H](CC(C)C)NC(=O)[C@H](CCCNC(=N)N)NC(=O)[C@H](CCC(N)=O)NC(=O)[C@@H](NC(=O)[C@H](C)NC(=O)[C@@H]1CSSC[C@H](NC(=O)[C@H](CCCCN)NC(=O)[C@H](CCCNC(=N)N)NC(=O)CC[C@H](NC(=O)CCCCCCCCCCCCCCCCCCC(=O)O)C(=O)O)C(=O)N[C@@H](CC(N)=O)C(=O)N[C@@H]([C@@H](C)O)C(=O)N[C@@H](C)C(=O)N[C@@H]([C@@H](C)O)C(=O)N1)[C@@H](C)O)C(=O)N[C@@H](CC(C)C)C(=O)N1CCC[C@H]1C(=O)N1CCC[C@H]1C(=O)N[C@H](C(=O)N[C@@H](CC(N)=O)C(=O)N[C@H](C(=O)NCC(=O)N[C@@H](CO)C(=O)N[C@@H](CC(N)=O)C(=O)N[C@H](C(=O)N[C@@H](Cc1ccc(O)cc1)C(N)=O)[C@@H](C)O)C(C)C)[C@@H](C)O` [Example 17, N-alpha-[(S)-4-Carboxy-4-(19-carboxynonadecanoylamino)butyryl]-Arg-[His17]-pramlintide] ({C20 diacid-γGlu}-RKCNTATCATQRLANFLHHSSNNFGPILPPTNVGSNTY-NH2; disulfide 3-8), for which the EC50 turned out to be 80 pM. As for `CC[C@H](C)[C@H](NC(=O)[C@@H]1CCCN1C(=O)CNC(=O)[C@H](Cc1ccccc1)NC(=O)[C@H](CC(N)=O)NC(=O)[C@H](CC(N)=O)NC(=O)[C@H](CO)NC(=O)[C@H](CO)NC(=O)[C@H](Cc1c[nH]cn1)NC(=O)CNC(=O)[C@H](CC(C)C)NC(=O)[C@H](Cc1ccccc1)NC(=O)[C@H](CC(N)=O)NC(=O)[C@H](C)NC(=O)[C@H](CC(C)C)NC(=O)[C@H](CCCNC(=N)N)NC(=O)[C@H](CCC(N)=O)NC(=O)[C@@H](NC(=O)[C@H](C)NC(=O)[C@@H]1CSSC[C@H](NC(=O)[C@H](CCCCN)NC(=O)[C@H](CCCNC(=N)N)NC(=O)CC[C@H](NC(=O)CCCCCCCCCCCCCCCCCCC(=O)O)C(=O)O)C(=O)N[C@@H](CC(N)=O)C(=O)N[C@@H]([C@@H](C)O)C(=O)N[C@@H](C)C(=O)N[C@@H]([C@@H](C)O)C(=O)N1)[C@@H](C)O)C(=O)N[C@@H](CC(C)C)C(=O)N1CCC[C@H]1C(=O)N1CCC[C@H]1C(=O)N[C@H](C(=O)N[C@@H](CC(N)=O)C(=O)N[C@H](C(=O)NCC(=O)N[C@@H](CO)C(=O)N[C@@H](CC(N)=O)C(=O)N[C@H](C(=O)N[C@@H](Cc1ccc(O)cc1)C(N)=O)[C@@H](C)O)C(C)C)[C@@H](C)O` [Example 18, N-alpha-[(S)-4-Carboxy-4-(19-carboxynonadecanoylamino)butyryl]-Arg-[Gly17]-pramlintide] ({C20 diacid-γGlu}-RKCNTATCATQRLANFLGHSSNNFGPILPPTNVGSNTY-NH2; disulfide 3-8), the figure is 100 pM. As for `CC[C@H](C)[C@H](NC(=O)[C@@H]1CCCN1C(=O)CNC(=O)[C@H](Cc1ccccc1)NC(=O)[C@H](CC(N)=O)NC(=O)[C@H](CC(N)=O)NC(=O)[C@H](CO)NC(=O)[C@H](CO)NC(=O)[C@H](Cc1c[nH]cn1)NC(=O)[C@H](C)NC(=O)[C@H](CC(C)C)NC(=O)[C@H](Cc1ccccc1)NC(=O)[C@H](CC(N)=O)NC(=O)[C@H](C)NC(=O)[C@H](CC(C)C)NC(=O)[C@H](CCCNC(=N)N)NC(=O)[C@H](CCC(N)=O)NC(=O)[C@@H](NC(=O)[C@H](C)NC(=O)[C@@H]1CSSC[C@H](NC(=O)[C@H](CCCCN)NC(=O)[C@H](CCCNC(=N)N)NC(=O)CC[C@H](NC(=O)CCCCCCCCCCCCCCCCCCC(=O)O)C(=O)O)C(=O)N[C@@H](CC(N)=O)C(=O)N[C@@H]([C@@H](C)O)C(=O)N[C@@H](C)C(=O)N[C@@H]([C@@H](C)O)C(=O)N1)[C@@H](C)O)C(=O)N[C@@H](CC(C)C)C(=O)N1CCC[C@H]1C(=O)N1CCC[C@H]1C(=O)N[C@H](C(=O)N[C@@H](CC(N)=O)C(=O)N[C@H](C(=O)NCC(=O)N[C@@H](CO)C(=O)N[C@@H](CC(N)=O)C(=O)N[C@H](C(=O)N[C@@H](Cc1ccc(O)cc1)C(N)=O)[C@@H](C)O)C(C)C)[C@@H](C)O` [Example 19, N-alpha-[(S)-4-Carboxy-4-(19-carboxynonadecanoylamino)butyryl]-Arg-[Ala17]-pramlintide] ({C20 diacid-γGlu}-RKCNTATCATQRLANFLAHSSNNFGPILPPTNVGSNTY-NH2; disulfide 3-8), the figure is 100 pM; as for `CC[C@H](C)[C@H](NC(=O)[C@@H]1CCCN1C(=O)CNC(=O)[C@H](Cc1ccccc1)NC(=O)[C@H](CC(N)=O)NC(=O)[C@H](CC(N)=O)NC(=O)[C@H](CO)NC(=O)[C@H](CO)NC(=O)[C@H](Cc1c[nH]cn1)NC(=O)[C@@H]1CCCN1C(=O)[C@H](CC(C)C)NC(=O)[C@H](Cc1ccccc1)NC(=O)[C@H](CC(N)=O)NC(=O)[C@H](C)NC(=O)[C@H](CC(C)C)NC(=O)[C@H](CCCNC(=N)N)NC(=O)[C@H](CCC(N)=O)NC(=O)[C@@H](NC(=O)[C@H](C)NC(=O)[C@@H]1CSSC[C@H](NC(=O)[C@H](CCCCN)NC(=O)[C@H](CCCNC(=N)N)NC(=O)CC[C@H](NC(=O)CCCCCCCCCCCCCCCCCCC(=O)O)C(=O)O)C(=O)N[C@@H](CC(N)=O)C(=O)N[C@@H]([C@@H](C)O)C(=O)N[C@@H](C)C(=O)N[C@@H]([C@@H](C)O)C(=O)N1)[C@@H](C)O)C(=O)N[C@@H](CC(C)C)C(=O)N1CCC[C@H]1C(=O)N1CCC[C@H]1C(=O)N[C@H](C(=O)N[C@@H](CC(N)=O)C(=O)N[C@H](C(=O)NCC(=O)N[C@@H](CO)C(=O)N[C@@H](CC(N)=O)C(=O)N[C@H](C(=O)N[C@@H](Cc1ccc(O)cc1)C(N)=O)[C@@H](C)O)C(C)C)[C@@H](C)O` [Example 21, N-alpha-[(S)-4-Carboxy-4-(19-carboxynonadecanoylamino)butyryl]-Arg-[Pro17]-pramlintide] ({C20 diacid-γGlu}-RKCNTATCATQRLANFLPHSSNNFGPILPPTNVGSNTY-NH2; disulfide 3-8), 2000 pM. As for `CC[C@H](C)[C@H](NC(=O)[C@@H]1CCCN1C(=O)CNC(=O)[C@H](Cc1ccccc1)NC(=O)[C@H](CC(N)=O)NC(=O)[C@H](CC(N)=O)NC(=O)[C@H](CO)NC(=O)[C@H](CO)NC(=O)[C@H](Cc1c[nH]cn1)NC(=O)[C@H](C)NC(=O)[C@H](CC(C)C)NC(=O)[C@H](Cc1ccccc1)NC(=O)[C@H](CC(N)=O)NC(=O)[C@H](C)NC(=O)[C@H](CC(C)C)NC(=O)[C@H](CCCNC(=N)N)NC(=O)[C@H](CCC(N)=O)NC(=O)[C@@H](NC(=O)[C@H](C)NC(=O)[C@@H]1CSSC[C@H](NC(=O)[C@H](CCCCN)NC(=O)[C@H](CCCNC(=N)N)NC(=O)COCCOCCNC(=O)CC[C@H](NC(=O)CCCCCCCCCCCCCCCCCCC(=O)O)C(=O)O)C(=O)N[C@@H](CC(N)=O)C(=O)N[C@@H]([C@@H](C)O)C(=O)N[C@@H](C)C(=O)N[C@@H]([C@@H](C)O)C(=O)N1)[C@@H](C)O)C(=O)N[C@@H](CC(C)C)C(=O)N1CCC[C@H]1C(=O)N1CCC[C@H]1C(=O)N[C@H](C(=O)N[C@@H](CC(N)=O)C(=O)N[C@H](C(=O)NCC(=O)N[C@@H](CO)C(=O)N[C@@H](CC(N)=O)C(=O)N[C@H](C(=O)N[C@@H](Cc1ccc(O)cc1)C(N)=O)[C@@H](C)O)C(C)C)[C@@H](C)O` [Example 24, N-alpha-[2-(2-{2-[4-(S)-Carboxy-4-(19-carboxynonadecanoylamino)butyrylamino]ethoxy}ethoxy)acetyl]-Arg-[Ala17]-pramlintide] ({C20 diacid-γGlu-AEEA}-RKCNTATCATQRLANFLAHSSNNFGPILPPTNVGSNTY-NH2; disulfide 3-8), the figure is 80 pM. Consider `CC[C@H](C)[C@H](NC(=O)[C@@H]1CCCN1C(=O)CNC(=O)[C@H](Cc1ccccc1)NC(=O)[C@H](CC(N)=O)NC(=O)[C@H](CC(N)=O)NC(=O)[C@H](CO)NC(=O)[C@H](CO)NC(=O)[C@H](Cc1c[nH]cn1)NC(=O)[C@H](CCCNC(=N)N)NC(=O)[C@H](CC(C)C)NC(=O)[C@H](Cc1ccccc1)NC(=O)[C@H](CC(N)=O)NC(=O)[C@H](C)NC(=O)[C@H](CC(C)C)NC(=O)[C@H](CCCNC(=N)N)NC(=O)[C@H](CCC(N)=O)NC(=O)[C@@H](NC(=O)[C@H](C)NC(=O)[C@@H]1CSSC[C@H](NC(=O)[C@H](CCCCN)NC(=O)[C@H](CCCNC(=N)N)NC(=O)CCCNC(=O)CCCCCCCCCCCCCCCCCCC(=O)O)C(=O)N[C@@H](CC(N)=O)C(=O)N[C@@H]([C@@H](C)O)C(=O)N[C@@H](C)C(=O)N[C@@H]([C@@H](C)O)C(=O)N1)[C@@H](C)O)C(=O)N[C@@H](CC(C)C)C(=O)N1CCC[C@H]1C(=O)N1CCC[C@H]1C(=O)N[C@H](C(=O)N[C@@H](CC(N)=O)C(=O)N[C@H](C(=O)NCC(=O)N[C@@H](CO)C(=O)N[C@@H](CC(N)=O)C(=O)N[C@H](C(=O)N[C@@H](Cc1ccc(O)cc1)C(N)=O)[C@@H](C)O)C(C)C)[C@@H](C)O` [Example 25, N-alpha-[4-(19-Carboxynonadecanoylamino)butyryl]-Arg-[Arg17]-pramlintide] ({C20 diacid-GABA}-RKCNTATCATQRLANFLRHSSNNFGPILPPTNVGSNTY-NH2; disulfide 3-8), for which the EC50 was 30 pM.
